Tests used:
[1] = Stability in liver microsomes, monkey; assay type: in vitro ADME; conditions: 60 minutes, read-out: In vitro Clint
Experimental: (§1) For metabolic stability, microsomes from human, monkey, dog, rat and mouse were used. For stability, prodrugs (1 μM) were spiked in each microsomes matrix and incubated in an orbital shaker at 37° C. Aliquots of 50 μL were taken from the reaction solution at 0, 15, 30, 45 and 60 min. The reaction was stopped by the addition of 4 volumes of cold acetonitrile with IS (100 nM alprazolam, 200 nM labetalol, 200 nM caffeine and 2 μM ketoprofen). Samples were centrifuged at 3, 220 g for 40 minutes. Aliquot of 100 μL of the supernatant was mixed with 100 μL of ultra-pure H2O and then used for LC-MS/MS analysis.
(§2) For LC-MS/MS, prodrugs were analyzed on an API 4000 instrument from AB Inc (Canada) with an ESI interface coupled to Shimadzu LC system on an Waters XSelect HSS T3 C18, 2.5 m, 2.1×30 mm column.
(§3) For data analysis, peak areas were determined from extracted ion chromatograms. The slope value, k, was determined by linear regression of the natural logarithm of the remaining percentage of the parent drug vs. incubation time curve. The in vitro half-life (in vitro t1/2) was determined from the slope value: in vitro t1/2=−(0.693/k)
(§4) Conversion of the in vitro t1/2 (min) into the in vitro intrinsic clearance (in vitro CLint, in μL/min/mg protein) was done using the following equation (mean of duplicate determinations): […]

[2] = Plasma stability, monkey plasma; conditions: 1 μM, 37° C., 4 hours
Experimental: (§5) For metabolic stability, plasma from dog, monkey, swine and human were used. For stability, prodrugs (1 μM) were spiked in respective solutions and incubated in an orbital shaker at 37° C. 50 μL aliquots of the mixture in duplicate were removed, and the reaction quenched by addition of four times the volume of ice cold acetonitrile spiked with the internal standard (Dexamethasone 100 ng/mL). […] 100 μL of the supernatant was diluted with 100 μL of water and transferred to the 0.6 mL plastic tubes on 96-well plate. Prodrug disappearance was monitored over time using a liquid chromatography and tandem mass spectrometry (LC-MS/MS).
(§6) For LC-MS/MS, prodrugs were analyzed on a ExionLC AD HPLC system coupled to REF Triple Quad 5500+ mass spectrometer with an ESI interface on an Phenomenex Kinetex 5 m C18 100A (2.1*50) mm UPLC column. The autosampler was temperature controlled and was operated at 4° C. The mobile phase used for the chromatographic separation was composed of acetonitrile/water containing 0.10% formic acid and will run at a flow rate of 0.6 mL/min for 3.5 min using gradient elution. The column effluent was monitored using […], equipped with an electrospray probe set in the positive ionization mode. Samples were introduced into the ionization source through a heated nebulized probe (400° C.). Disappearance of prodrugs will be measured from ratio of peak areas of analyte to IS.
(§7) For quantification of compound remaining, disappearance of prodrugs was measured from ratio of peak areas of analyte to IS.

[3] = Stability in liver microsomes, human; assay type: in vitro ADME; conditions: 60 minutes, read-out: In vitro Clint
Experimental: as §1, §2, §3, §4

[4] = system: MC38 tumor cells; experiment: Anti-tumor efficacy in MC38 syngeneics in C57BL/6 mouse (Example 9); assay type: in vivo; conditions: C57BL/6, MC38, 2 μmol/kg S.C. QD; for T/C (%) / TGI (%) / TV (mm^3) (Mean ± SEM) D21 / TV (mm^3) at D21 (Mean ± SEM): D21; for TV (mm^3) at D21 (Mean ± SEM): Table 5
Experimental: Animal species: Mus musculus; Strain: C57BL/6; Age: 6-8 weeks; Sex: female.
The MC38 tumor cells were maintained in vitro in DMEM medium supplemented with 10% FBS at 37° C., 5% CO2. The cells growing in an exponential growth phase were harvested and counted for tumor inoculation. The culture MC38 were harvested, re-suspended in PBS containing 50% Matrigel at a density of 1×10^7 cells/mL. Each mouse was inoculated subcutaneously in the right flank region with 1×10^6 cells in 0.1 mL of PBS containing 50% Matrigel for tumor development.
(§8) The treatments were started when the mean tumor size reached 79-118 mm^3 (average tumor size 96 mm^3). Each group contained 8 tumor bearing mice. Group 1 was treated with Vehicle (10% DMSO+90% Saline), S.C., QD.
(§9) In vivo efficacy was examined according to absolute tumor growth inhibition (TGI) and the safety was evaluated according to weight change and survival in mice.
Statistical analysis of difference in tumor volume among the groups was performed using one-way ANOVA followed by individual comparisons using Games-Howell post-hoc test (equal variance not assumed). All data was analyzed using SPSS 22.0 software.

[5] = Plasma stability, human plasma; conditions: 1 μM, 37° C., 4 hours
Experimental: as §5, §6, §7

[6] = Stability in liver microsomes, rat; assay type: in vitro ADME; conditions: 60 minutes, read-out: In vitro Clint
Experimental: as §1, §2, §3, §4

[7] = Plasma stability, dog plasma; assay type: in vitro ADME; conditions: 1 μM, 37° C., 4 hours
Experimental: For metabolic stability, plasma from dog, monkey, swine and human were used. For stability, prodrugs (1 μM) were spiked in respective solutions and incubated in an orbital shaker at 37° C. 50 μL aliquots of the mixture in duplicate were removed, and the reaction quenched by addition of four times the volume of ice cold acetonitrile spiked with the internal standard (Dexamethasone 100 ng/mL). The samples were vortexed for 30 s and centrifuged at 15000 g for 5 min. 100 μL of the supernatant was diluted with 100 μL of water and transferred to the 0.6 mL plastic tubes on 96-well plate. Prodrug disappearance was monitored over time using a liquid chromatography and tandem mass spectrometry (LC-MS/MS).
as §6, §7

[8] = Body weight of C57BL/6 mice bearing MC38 tumors (Example 9); assay type: in vivo, Mus musculus; conditions: C57BL/6, MC38, 2 μmol/kg S.C. QD
Experimental: as §8, with “QD. Group 2 was given treatments with reference compound A at 2 μmol/kg, S.C., QD. Group 3 was given treatments with compound 2 at 2 μmol/kg, S.C., QD.” for “QD.”
as §9

[9] = Body weight of CES1c -/- mice bearing MC38 tumors (Example 10); assay type: in vivo; conditions: CES1c -/- mouse, MC38, 2 μmol/kg S.C. QD; for BW Change (%): D6 to D26
Experimental: The treatments were started when the mean tumor size reached 52-132 mm^3 (average tumor size 95 mm^3). Each group contained 5 tumor bearing mice. Group 1 was treated with Vehicle (10% DMSO+90% Saline), S.C., QD(Subcutaneous injection, quaque die). Group 2 was given treatments with reference compound A at 2 μmol/kg, S.C., QD. Group 3 was given treatments with compound 2 at 2 μmol/kg, S.C., QD.
as §9

[10] = Stability in liver microsomes, dog; assay type: in vitro ADME; conditions: 60 minutes, read-out: In vitro Clint
Experimental: as §1, §2, §3, §4

| SMILES | microsomal CLint at 1 μM [1] | plasma stability (compound remaining) [2] | microsomal CLint at 1 μM [3] | TV (mm^3) (Mean ± SEM) D6 [4] | TV (mm^3) (Mean ± SEM) D10 [4] | TV (mm^3) (Mean ± SEM) D14 [4] | TV (mm^3) (Mean ± SEM) D18 [4] | T/C (%) [4] | TGI (%) [4] | TV (mm^3) (Mean ± SEM) D21 [4] | TV (mm^3) (Mean ± SEM) D25 [4] | TV (mm^3) (Mean ± SEM) D28 [4] | TV (mm^3) (Mean ± SEM) D31 [4] | TV (mm^3) at D21 (Mean ± SEM) [4] | plasma stability (compound remaining) [5] | microsomal CLint at 1 μM [6] | plasma stability (compound remaining) [7] | BW(g) (Mean ± SEM) Beginning (D6) [8] | BW(g) (Mean ± SEM) End (D21) [8] | tolerability / body weight loss [9] | also measured |
| --- | --- | --- | --- | --- | --- | --- | --- | --- | --- | --- | --- | --- | --- | --- | --- | --- | --- | --- | --- | --- | --- |
| CO[C@@H](C)C(=O)N[C@@H](CCC(=O)C=[N+]=[N-])C(=O)OC(C)C [Compound 2, isopropyl (S)-6-diazo-2-((S)-2-methoxypropanamido)-5-oxohexanoate] | 31.8 µL/min/mg | substantially intact | 43.4 µL/min/mg | 96 ± 4 mm^3 | 141 ± 9 mm^3 | 140 ± 10 mm^3 | 180 ± 13 mm^3 | 9.5% | 90.5% | 263 ± 32 mm^3 | 381 ± 55 mm^3 | 496 ± 62 mm^3 | 617 ± 56 mm^3 | 263 ± 32 mm^3 | substantially intact | 62.4 µL/min/mg | substantially intact | 21.7 ± 0.2 g | 22.4 ± 0.2 g | well-tolerated | BW(g) (Mean ± SEM) Beginning (D6) [9]: 19.1 ± 0.3 g; BW Change (%) [9]: +2.4%; BW(g) (Mean ± SEM) End (D26) [9]: 19.5 ± 0.3 g; microsomal CLint at 1 μM [10]: 12.7 µL/min/mg |
| CC(=O)N[C@@H](Cc1c[nH]c2ccccc12)C(=O)N[C@@H](CCC(=O)C=[N+]=[N-])C(=O)OC(C)C [Reference compound A, reference compound] | 393 µL/min/mg | substantially intact | 119 µL/min/mg | 96 ± 4 mm^3 | 148 ± 6 mm^3 | 196 ± 25 mm^3 | 297 ± 48 mm^3 | 14.4% | 85.6% | 399 ± 74 mm^3 | 680 ± 143 mm^3 | 928 ± 153 mm^3 | 1358 ± 213 mm^3 | 399 ± 74 mm^3 | substantially intact | 95.2 µL/min/mg | substantially intact | 21.9 ± 0.3 g | 22.5 ± 0.4 g | some body weight loss | BW Change (%) ([8]; D6 to D21): +2.8%; BW(g) (Mean ± SEM) Beginning (D6) [9]: 19.2 ± 0.2 g; BW Change (%) [9]: −8.3%; BW(g) (Mean ± SEM) End (D26) [9]: 17.6 ± 0.9 g; microsomal CLint at 1 μM [10]: 60.4 µL/min/mg |
